This experiment has as its system Wnt activity (wnt-responsive SP5 promoter luciferase reporter in SW480 cells). Description: Wnt activity reporter assay (SP5 promoter-firefly luciferase in SW480 cells). The format is cell-based. Particulars: Homo sapiens; SW480 colon cancer cells with SP5 promoter luciferase reporter; 24 h after compound addition; half-log dilutions, three micromolar top concentration; normalized to DMSO; read-out: Wnt inhibition. The text has this: The above synthesized compounds were screened using the assay procedure for Wnt activity described below.
Reporter cell lines were generated by stably transducing cells of cancer cell lines (e.g., colon cancer) with a lentiviral construct that include a wnt-responsive promoter driving expression of the firefly luciferase gene.
Lentiviral constructs were made in which the SP5 promoter, a promoter having eight TCF/LEF binding sites derived from the SP5 promoter, was linked upstream of the firefly luciferase gene. The lentiviral constructs included a hygromycin resistance gene as a selectable marker. The SP5 promoter construct was used to transduce SW480 cells, a colon cancer cell line having a mutated APC gene that generates a truncated APC protein, leading to de-regulated accumulation of β-catenin.
Cultured SW480 cells bearing a reporter construct were distributed at approximately 10,000 cells per well into 384 well multiwell plates. Compounds were then added to the wells in half-log dilutions using a three micromolar top concentration. A series of control wells for each cell type received only buffer and compound solvent. Twenty-four hours after the addition of compound, reporter activity for luciferases was assayed, for example, by addition of the BrightGlo luminescence reagent (Promega) and the Victor3 plate reader (Perkin Elmer). Readings were normalized to DMSO only treated cells, and normalized activities were then used for the IC50 calculations.

In the case of `CCCCC(=O)Nc1cncc(-c2ccc3[nH]nc(-c4nc5c(N6CCCCC6)cccc5[nH]4)c3c2)c1` [Compound 162, N-(5-(3-(4-(Piperidin-1-yl)-1H-benzo[d]imidazol-2-yl)-1H-indazol-5-yl)pyridin-3-yl)pentanamide], the IC50 came out at 140 nM. For `O=C(Nc1cncc(-c2ccc3[nH]nc(-c4nc5c(N6CCCCC6)cccc5[nH]4)c3c2)c1)c1ccccc1` [Compound 155, N-(5-(3-(4-(Piperidin-1-yl)-1H-benzo[d]imidazol-2-yl)-1H-indazol-5-yl)pyridin-3-yl)benzamide] the value was 289 nM; for `CN1CCN(c2cccc3[nH]c(-c4n[nH]c5ccc(-c6cccnc6)cc45)nc23)CC1` [Compound 196, 3-(4-(4-Methylpiperazin-1-yl)-1H-benzo[d]imidazol-2-yl)-5-(pyridin-3-yl)-1H-indazole], 28 nM; for `CC(C)C(=O)Nc1cncc(-c2ccc3[nH]nc(-c4nc5c(-c6ccccn6)cccc5[nH]4)c3c2)c1` [Compound 129, N-(5-(3-(4-(Pyridin-2-yl)-1H-benzo[d]imidazol-2-yl)-1H-indazol-5-yl)pyridin-3-yl)isobutyramide], 21 nM. For `O=C(Nc1cncc(-c2ccc3[nH]nc(-c4nc5c(-c6ccc(F)cc6)cccc5[nH]4)c3c2)c1)C1CCC1` [Compound 44, N-(5-(3-(4-(4-Fluorophenyl)-1H-benzo[d]imidazol-2-yl)-1H-indazol-5-yl)pyridin-3-yl)cyclobutanecarboxamide], the IC50 stood at 140 nM. The result for `CCCCC(=O)Nc1cncc(-c2ccc3[nH]nc(-c4nc5c(-c6cccc(F)c6)cccc5[nH]4)c3c2)c1` [Compound 18, N-(5-(3-(4-(3-Fluorophenyl)-1H-benzo[d]imidazol-2-yl)-1H-indazol-5-yl)pyridin-3-yl)pentanamide] reads 30 nM; that for `Cc1cn(-c2cccc3[nH]c(-c4n[nH]c5ccc(-c6cncc(CNCc7ccccc7)c6)cc45)nc23)cn1` [Compound 191, N-Benzyl-1-(5-(3-(4-(4-methyl-1H-imidazol-1-yl)-1H-benzo[d]imidazol-2-yl)-1H-indazol-5-yl)pyridin-3-yl)methanamine], 138 nM; that for `CN(C)Cc1cncc(-c2ccc3[nH]nc(-c4nc5c(-c6ccccn6)cccc5[nH]4)c3c2)c1` [Compound 133, N,N-Dimethyl-1-(5-(3-(4-(pyridin-2-yl)-1H-benzo[d]imidazol-2-yl)-1H-indazol-5-yl)pyridin-3-yl)methanamine], 127 nM. In the case of `CN1CCN(c2cccc3[nH]c(-c4n[nH]c5ccc(-c6cncc(NC(=O)C7CCCC7)c6)cc45)nc23)CC1` [Compound 213, N-(5-(3-(4-(4-Methylpiperazin-1-yl)-1H-benzo[d]imidazol-2-yl)-1H-indazol-5-yl)pyridin-3-yl)cyclopentanecarboxamide], the IC50 was found to be 195 nM. Take `c1cc(-c2ccoc2)c2nc(-c3n[nH]c4ccc(-c5cncc(CN6CCCCC6)c5)cc34)[nH]c2c1` [Compound 279, 3-(4-(Furan-3-yl)-1H-benzo[d]imidazol-2-yl)-5-(5-(piperidin-1-ylmethyl)pyridin-3-yl)-1H-indazole]: the IC50 turned out to be 418 nM. For `CC(C)(C)CC(=O)Nc1cncc(-c2ccc3[nH]nc(-c4nc5ccccc5[nH]4)c3c2)c1` [Compound 232, N-(5-(3-(1H-Benzo[d]imidazol-2-yl)-1H-indazol-5-yl)pyridin-3-yl)-3,3-dimethylbutanamide], the IC50 turned out to be 65 nM. As to `Cc1ccncc1-c1ccc2[nH]nc(-c3nc4c(-c5ccc(F)cc5)cccc4[nH]3)c2c1` [Compound 29, 3-(4-(4-Fluorophenyl)-1H-benzo[d]imidazol-2-yl)-5-(4-methylpyridin-3-yl)-1H-indazole], the IC50 came to 100 nM. For `O=C(Nc1cncc(-c2ccc3[nH]nc(-c4nc5c(-c6ccccn6)cccc5[nH]4)c3c2)c1)C1CCC1` [Compound 140, N-(5-(3-(4-(Pyridin-2-yl)-1H-benzo[d]imidazol-2-yl)-1H-indazol-5-yl)pyridin-3-yl)cyclobutanecarboxamide] the value was 8 nM; for `CC(C)(C)CC(=O)Nc1cncc(-c2ccc3[nH]nc(-c4nc5c(-c6cccc(F)c6)cccc5[nH]4)c3c2)c1` [Compound 16, N-(5-(3-(4-(3-Fluorophenyl)-1H-benzo[d]imidazol-2-yl)-1H-indazol-5-yl)pyridin-3-yl)-3,3-dimethylbutanamide], 31 nM. For `CC(C)CC(=O)Nc1cncc(-c2ccc3[nH]nc(-c4nc5ccccc5[nH]4)c3c2)c1` [Compound 218, N-(5-(3-(1H-Benzo[d]imidazol-2-yl)-1H-indazol-5-yl)pyridin-3-yl)-3-methylbutanamide] the value was 37 nM; for `c1cc(N2CCCCC2)c2nc(-c3n[nH]c4ccc(-c5cncc(CN6CCCC6)c5)cc34)[nH]c2c1` [Compound 158, 3-(4-(Piperidin-1-yl)-1H-benzo[d]imidazol-2-yl)-5-(5-(pyrrolidin-1-ylmethyl)pyridin-3-yl)-1H-indazole], 116 nM. For `Cc1ccncc1-c1ccc2[nH]nc(-c3nc4c(-c5cccnc5)cccc4[nH]3)c2c1` [Compound 77, 5-(4-Methylpyridin-3-yl)-3-(4-(pyridin-3-yl)-1H-benzo[d]imidazol-2-yl)-1H-indazole] the value was 63 nM.

For the molecule `Nc1cncc(-c2ccc3[nH]nc(-c4nc5c(-c6ccoc6)cccc5[nH]4)c3c2)c1` [Compound 267, 5-(3-(4-(Furan-3-yl)-1H-benzo[d]imidazol-2-yl)-1H-indazol-5-yl) pyridin-3-amine], the IC50 was at least 4150 nM. Regarding `O=C(Cc1ccccc1)Nc1cncc(-c2ccc3[nH]nc(-c4nc5c(-c6ccncc6)cccc5[nH]4)c3c2)c1` [Compound 106, 2-Phenyl-N-(5-(3-(4-(pyridin-4-yl)-1H-benzo[d]imidazol-2-yl)-1H-indazol-5-yl)pyridin-3-yl)acetamide], the IC50 amounted to 1930 nM. For the molecule `O=C(Nc1cncc(-c2ccc3[nH]nc(-c4nc5c(-c6ccc(F)cc6)cccc5[nH]4)c3c2)c1)C1CCCC1` [Compound 45, N-(5-(3-(4-(4-Fluorophenyl)-1H-benzo[d]imidazol-2-yl)-1H-indazol-5-yl)pyridin-3-yl)cyclopentanecarboxamide], the IC50 amounted to 110 nM. Consider `O=C(Nc1cncc(-c2ccc3[nH]nc(-c4nc5c(-c6ccoc6)cccc5[nH]4)c3c2)c1)C1CC1` [Compound 283, N-(5-(3-(4-(Furan-3-yl)-1H-benzo[d]imidazol-2-yl)-1H-indazol-5-yl)pyridin-3-yl)cyclopropanecarboxamide], for which the IC50 was found to be 57 nM. In the case of `CC(C)C(=O)Nc1cncc(-c2ccc3[nH]nc(-c4nc5c(-c6ccsc6)cccc5[nH]4)c3c2)c1` [Compound 249, N-(5-(3-(4-(Thiophen-3-yl)-1H-benzo[d]imidazol-2-yl)-1H-indazol-5-yl)pyridin-3-yl)isobutyramide], the IC50 came to 13 nM. As for `O=C(Nc1cncc(-c2ccc3[nH]nc(-c4nc5c(-c6ccc(F)cc6)cccc5[nH]4)c3c2)c1)c1ccccc1` [Compound 35, N-(5-(3-(4-(4-Fluorophenyl)-1H-benzo[d]imidazol-2-yl)-1H-indazol-5-yl)pyridin-3-yl)benzamide], the IC50 amounted to 161 nM. The result for `CC(C)CC(=O)Nc1cncc(-c2ccc3[nH]nc(-c4nc5c(-c6ccccn6)cccc5[nH]4)c3c2)c1` [Compound 122, 3-Methyl-N-(5-(3-(4-(pyridin-2-yl)-1H-benzo[d]imidazol-2-yl)-1H-indazol-5-yl)pyridin-3-yl)butanamide] reads 11 nM. `CC(C)CC(=O)Nc1cncc(-c2ccc3[nH]nc(-c4nc5c(N6CCCCC6)cccc5[nH]4)c3c2)c1` [Compound 146, 3-Methyl-N-(5-(3-(4-(piperidin-1-yl)-1H-benzo[d]imidazol-2-yl)-1H-indazol-5-yl)pyridin-3-yl)butanamide]: the IC50 is 58 nM. The result for `Nc1cncc(-c2ccc3[nH]nc(-c4nc5c(-c6cccnc6)cccc5[nH]4)c3c2)c1` [Compound 75, 5-(3-(4-(Pyridin-3-yl)-1H-benzo[d]imidazol-2-yl)-1H-indazol-5-yl)pyridin-3-amine] reads 6 nM. For `O=C(Nc1cncc(-c2ccc3[nH]nc(-c4nc5c(N6CCCCC6)cccc5[nH]4)c3c2)c1)C1CCCCC1` [Compound 166, N-(5-(3-(4-(Piperidin-1-yl)-1H-benzo[d]imidazol-2-yl)-1H-indazol-5-yl)pyridin-3-yl)cyclohexanecarboxamide], the IC50 came to 445 nM.

In the case of `O=C(Nc1cncc(-c2ccc3[nH]nc(-c4nc5ccccc5[nH]4)c3c2)c1)C1CCCCC1` [Compound 238, N-(5-(3-(1H-Benzo[d]imidazol-2-yl)-1H-indazol-5-yl)pyridin-3-yl) cyclohexanecarboxamide], the IC50 came to 147 nM. For `c1ccc(CNCc2cncc(-c3ccc4[nH]nc(-c5nc6ccccc6[nH]5)c4c3)c2)cc1` [Compound 239, 1-(5-(3-(1H-Benzo[d]imidazol-2-yl)-1H-indazol-5-yl)pyridin-3-yl)-N-benzylmethanamine] the value was 372 nM; for `Cc1cn(-c2cccc3[nH]c(-c4n[nH]c5ccc(-c6cnccc6C)cc45)nc23)cn1` [Compound 173], 46 nM.

On to `CCCCC(=O)Nc1cncc(-c2ccc3[nH]nc(-c4nc5c(-c6ccccc6F)cccc5[nH]4)c3c2)c1` [Compound 66, N-(5-(3-(4-(2-Fluorophenyl)-1H-benzo[d]imidazol-2-yl)-1H-indazol-5-yl)pyridin-3-yl)pentanamide], for which the IC50 was at least 4000 nM.
